For the assay, the system named is fast-spiking interneurons (FSI). Kind of assay: Hippocampal brain slice current clamp recording, FSI excitability (AP firing). The format is cell-based, rat. The method, then:
Male Sprague Dawley rats (18˜24 days old) from Shanghai Laboratory Animal Center (Shanghai, China) were used for brain slice experiments. They were housed in groups of five in controlled conditions (temperature of 23±3° C., humidity of 40-70%, and 12:12 light-dark cycle with lights on at 5:00 am) and free access to food and water. All procedures were conducted in agreement with the guideline of Institutional Animal Care and Use Committee at ChemPartner. Ethical approval was obtained by the The Danish Animal Experimentation Inspectorate (journal no. 2014 15 0201 00339).
Animals were decapitated by a guillotine and their brains quickly removed and placed in ice-cold modified artificial cerebral spinal fluid (ACSF) containing (in mM): 110 sucrose, 60 NaCl, 3 KCl, 5 glucose, 28 NaHCO3, 1.25 NaH2PO4, 0.5 CaCl2 and 7 MgCl2, aerated with 95% O2/5% CO2. The brains were block-trimmed and glued onto the stage of a vibratome (VT1200S, Leica Microsystems Inc., Bannockburn, Ill., USA). Parasagittal hippocampal slices (300 μm) were cut and incubated in the regular carbogenated ACSF containing (in mM): 119 NaCl, 2.5 KCl, 1.2 Na2HPO4, 25 NaHCO3, 2.5 CaCl2, 1.3 MgCl2, 10 glucose at 35° C. for the first 60 min and then transferred to room temperature prior to recordings.
In the hippocampal CA1 pyramidal cell layer, fast-spiking interneurons (FSI) or pyramidal (PYR) cells were visualized using differential interference contrast-infrared (DIC-IR)-assisted microscopy and whole-cell patch clamp recordings performed using an Axon Multiclamp 700B amplifier (Molecular Devices, Union City, Calif.). FSI were selected based on non-pyramidal shape and multipolar dendrites. Putative FSI were only accepted for experiments if they fulfilled the following electrophysiological criteria: short duration action potentials (APs <1 ms), large after hyperpolarizations, and, in response to sustained current injection, high frequency AP firing (>100 Hz) with limited spike frequency adaptation. Patch pipettes (4-5MΩ) were pulled from thick-walled borosilicate glass tubing (O.D.: 1.5 mm, I.D.: 0.75 mm; Sutter Instrument, Novato, Calif., USA).
Whole cell patch clamp recordings in current clamp mode were used to study neuronal excitability. AP firing was recorded in the presence of 50 μM APV, 10 μM DNQX and 10 μM Gabazine to block all synaptic transmission mediated by NMDA, AMPA and GABAA receptors. Patch pipettes were filled with an intracellular solution containing (in mM): 110 KMeSO4, 10 HEPES, 1 EGTA, 2 MgCl2, 4 Na2-ATP, 0.4 TRIS-GTP, 10 Tris2-Phosphocreatine, pH adjusted to 7.3 with KOH. The osmolarity was adjusted to 290 mOsm with sucrose. The holding potential was maintained continuously at −70 mV by manual DC injection. Series resistance (10-20 MΩ after “break-in”) was 90% compensated and monitored constantly during the entire experiment by “bridge”-balancing of the instantaneous voltage responses to a hyperpolarizing current pulse before each depolarizing stimulus delivery. A series of depolarizing current steps (800 ms-long) were applied every 3 min. Following at least 15 min of stable activity, Kv3 channel modulators were applied to the ACSF at increasing concentrations.

2 compounds from patent US20200131156A1, “ARYLSULFONYLPYROLECARBOXAMIDE DERIVATIVES AS Kv3 POTASSIUM CHANNEL ACTIVATORS” (H. Lundbeck A/S, priority 2018, published 2020) can be followed below.

In the case of `Cc1ccc(S(=O)(=O)n2ccc(C(=O)NCc3ncco3)c2)cc1` [Compound 86, 1-(4-methylbenzene-1-sulfonyl)-N-[(1,3-oxazol-2-yl)methyl]-1H-pyrrole-3-carboxamide], the “FSI excitability (number of APs)” value is on record as “slight reduction in excitability” (10 μM); “increased excitability” (0.3 and 1 μM).

`Cc1cnc(CNC(=O)c2ccn(S(=O)(=O)c3ccc(F)cc3C)c2)cn1` [Compound 90, 1-(4-fluoro-2-methylbenzene-1-sulfonyl)-N-[(5-methylpyrazin-2-yl)methyl]-1H-pyrrole-3-carboxamide]: the “FSI excitability (number of APs)” value reads like this: (10 μM) “decreased, reaching a level below baseline”; (0.3 and 1 μM) “increase in FSI excitability”. For the same compound, where the note is “low concentrations (0.1 and 1 μM)”, the FSI excitability entry is reported as “increases FSI excitability”.
